“Also recorded” adds a separate entry of the source. Where two headings read alike, the source gives them in different places.
How the values were obtained:
[1] = system: LnCap cells; conditions: LnCap AR with residue 877 threonine to alanine mutation; cited from earlier work
[2] = system: LnCap cells; assay type: cell-based, human
[3] = system: LnCap cells; assay type: cell-based, human; remark: listed apart in the source
[4] = target: T1, LnCap AR (residue 877 threonine to alanine) (Homo sapiens, UniProt P10275, T878A); conditions: LnCap AR expression vector; cited from earlier work
T1 sequence (P10275 1-920 T878A): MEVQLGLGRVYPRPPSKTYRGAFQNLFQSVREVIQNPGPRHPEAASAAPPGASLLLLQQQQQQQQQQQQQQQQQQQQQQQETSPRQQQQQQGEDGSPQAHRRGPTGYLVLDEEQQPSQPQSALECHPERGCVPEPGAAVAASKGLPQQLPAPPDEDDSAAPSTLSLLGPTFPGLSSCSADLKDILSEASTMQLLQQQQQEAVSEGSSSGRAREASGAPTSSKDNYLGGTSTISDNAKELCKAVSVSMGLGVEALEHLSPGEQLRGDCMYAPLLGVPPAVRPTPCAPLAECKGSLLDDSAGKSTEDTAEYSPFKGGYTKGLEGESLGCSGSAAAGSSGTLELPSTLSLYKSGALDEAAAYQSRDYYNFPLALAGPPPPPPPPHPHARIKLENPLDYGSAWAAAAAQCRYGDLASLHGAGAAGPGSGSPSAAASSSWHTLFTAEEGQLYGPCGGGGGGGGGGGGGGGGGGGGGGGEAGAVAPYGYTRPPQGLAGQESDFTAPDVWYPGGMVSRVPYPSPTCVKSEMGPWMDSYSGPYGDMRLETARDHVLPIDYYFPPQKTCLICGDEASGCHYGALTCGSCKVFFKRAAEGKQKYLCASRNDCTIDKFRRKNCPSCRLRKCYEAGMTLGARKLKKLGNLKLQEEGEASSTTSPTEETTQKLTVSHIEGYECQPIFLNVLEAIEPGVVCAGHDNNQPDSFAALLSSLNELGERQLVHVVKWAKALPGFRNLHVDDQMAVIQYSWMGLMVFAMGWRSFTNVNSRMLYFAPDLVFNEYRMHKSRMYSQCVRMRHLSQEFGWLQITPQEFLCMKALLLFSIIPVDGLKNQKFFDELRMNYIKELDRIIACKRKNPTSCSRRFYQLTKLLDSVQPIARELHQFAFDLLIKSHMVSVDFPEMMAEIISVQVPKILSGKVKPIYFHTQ

[5] = target: T2, rhARLBD (ligand binding domain of the rhesus monkey AR) (Macaca mulatta, UniProt Q6QT55); experiment: Hydroxyapatite (HAP)-based 3H-R1881 displacement binding assay using rhARLBD expressed in yeast
T2 construct: includes amino acids 601 to 895 of the rhesus monkey AR; made in house; host or cells: yeast (pESP-1 vector, Stratagene)
T2 sequence (Q6QT55 601-895): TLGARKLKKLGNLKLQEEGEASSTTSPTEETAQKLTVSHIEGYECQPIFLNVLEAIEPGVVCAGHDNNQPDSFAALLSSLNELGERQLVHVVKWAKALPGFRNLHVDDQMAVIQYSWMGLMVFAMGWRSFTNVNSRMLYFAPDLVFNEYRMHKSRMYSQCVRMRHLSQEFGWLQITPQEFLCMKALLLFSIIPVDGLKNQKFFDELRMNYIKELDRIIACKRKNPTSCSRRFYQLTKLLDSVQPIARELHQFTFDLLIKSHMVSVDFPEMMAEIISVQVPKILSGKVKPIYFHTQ
Description: The screening assays were set up to use the ARLBD from Macaca mulatta (rhesus monkey; herein after rhARLBD) expressed in yeast. […] A medium to high throughput AR binding assay for screening analyte libraries and characterizing various analytes therein was also developed.
Cloning the full length rhesus monkey AR from rhesus monkey prostrate mRNA and subsequent subcloning of the rhARLBD was done as described in WO02090529 to Towler and Chen. Briefly, the rhARLBD was PCR amplified from the full rhesus monkey AR and inserted in frame with GST at a SmaI site of the pESP-1 clone. This placed the rhARLBD downstream of the GST-flag tag.
Cell lysates comprising the rhARLBD were prepared as follows. GST-Flag-rhARLBD (Mr=60 kDa) fusion protein was expressed in yeast using the pESP-1 vector (Stratagene, La Jolla, Calif.) according to the manufacturer's protocol. After a sufficient time to express the GST-Flag-rhARLBD the yeast were centrifuged and the yeast pellet resuspended in TGEM/DTT/PI buffer (10 mM Tris-HCl, pH 7.4, 1 mM EDTA, 10% glycerol, 10 mM molybdate, 2 mM dithiothreitol (DTT), 50 μL yeast protease inhibitor cocktail (PI, Sigma Chemicals, St. Louis, Mo.) per gram of yeast and 1/10×^th volume of PI complete (PI: Boehringer-Mannheim, Roche Applied Science, Indianapolis, Ind.) per gram of yeast. The yeast cells were lysed by vortexing in the presence of glass beads in cold TGEM/DTT/PI buffer. The cell debris was centrifuged at 10,000×g for 20 minutes at 4° C. The clear supernatant fraction containing the rhARLBD was the lysate used for the assays. Usually, about 25 to 50 μL of lysate as determined by titration was used per assay. In some cases, the rhARLBD fusion protein was purified from the lysate using a batch purification method using anti-Flag M2 affinity gel (Sigma) in TEGM/DTT buffer. The rhARLBD fusion protein was eluted using TEGM/DTT buffer containing 100 μg/mL Flag peptide.
Hydroxyapatite (HAP)-based binding assays were performed as follows: For the hydroxyapatite assays, the amount of lysate used was based on titration using ^3H-ligand at concentration about the Kd value of the ligand to the corresponding receptor. In general, the assay was carried at in 150 μL of TEGM buffer. […] The samples were vortexed and incubated on ice for about 10 minutes. […] The washing process transfers the HAP pellets containing ligand-bound-expressed receptor to [sequence]-96 GF/B (Packard Instruments Co.) which has been prewetted in 0.5% polyethylimine. The HAP pellets on the filter plates were incubated with 50 μL of MICROSCINT (Packard Instruments Co.) for 2 hours before counted on the TOPCOUNT (Packard Instruments Co.). […] The binding reactions were incubated for about 18 hours at 4° C. and process as above).

Compound | stimulation of LnCap cell growth through the AR [1] | antagonist activity on PSA production in LnCap cells (antagonist mode) [2] | agonist activity, PSA production in LnCap cells (agonist mode) [3] | other results
CC(O)(CS(=O)(=O)c1ccc(F)cc1)C(=O)Nc1ccc(C#N)c(C(F)(F)F)c1 (stereo not shown) [CASODEX] | retains its antagonism | antagonist activity | full antagonist | –
C[C@]12CC[C@H]3[C@@H](CCC4=C[C@@H](O)CC[C@@]43C)[C@@H]1CC[C@@H]2O [4-androstene-3β,17β-diol] | – | antagonist activity; also recorded: antagonized the agonist activity of DHT and R1881 | had agonist activity | –
CC(=O)O[C@]1(C(C)=O)CC[C@H]2[C@@H]3C=C(Cl)C4=CC(=O)[C@@H]5C[C@@H]5[C@]4(C)[C@H]3CC[C@@]21C [CPA, cyproterone acetate] | able to stimulate cell growth | antagonist activity; also recorded: antagonized the agonist activity of DHT and R1881 | had agonist activity | –
C[C@]12CCC(=O)C[C@@H]1CC[C@@H]1[C@@H]2CC[C@]2(C)[C@@H](O)CC[C@@H]12 [DHT, 5-α-dihydrotestosterone] | – | full agonist activity | full agonist activity; also recorded: had agonist activity | –
CC(=O)[C@H]1CC[C@H]2[C@@H]3CCC4=CC(=O)CC[C@]4(C)[C@H]3CC[C@]12C [progesterone] | able to stimulate cell growth | – | – | –
CC(C)(O)C(=O)Nc1ccc([N+](=O)[O-])c(C(F)(F)F)c1 [hydroxyflutamide] | able to stimulate cell growth | – | – | effect on the androgen promoter in receptor/reporter cotransfection [4]: agonist effect
C[C@]1(O)CC[C@H]2[C@@H]3CCC4=CC(=O)CCC4=C3C=C[C@@]21C [R1881, 17 β-hydroxy-17-methyl-estra-4,9,11-trien-3-one] | – | does not antagonize | slightly less potent than DHT; also recorded: had agonist activity | IC50 [5]: ~1 nM; binding affinity to rhARLBD compared to full-length human AR [5]: same binding affinity; also recorded: no significant shift
C[C@]12CC[C@H](O)CC1=CC[C@@H]1[C@@H]2CC[C@]2(C)C(=O)CC[C@@H]12 [DHEA, dehydroepiandrosterone] | – | antagonist activity; also recorded: antagonized the agonist activity of DHT and R1881 | had agonist activity | –
C[C@]12CCC(=O)C=C1CC[C@@H]1[C@@H]2CC[C@]2(C)C(=O)CC[C@@H]12 [4-androstene-3,17β-dione] | – | antagonist activity; also recorded: antagonized the agonist activity of DHT and R1881 | had agonist activity | binding affinity to rhARLBD compared to full-length human AR ([5]; comparison of IC50s, rhARLBD (yeast lysate) vs full-length human AR (mdaAR), FIGS. 2A-2D, 3A-3D): reduced binding affinity
